According to the supplement of paper PMC9663587:

How the values were obtained:
[1] = compound: CCN1CCN(Cc2ccc(Nc3ncc(F)c(-c4cc(F)c5nc(C)n(C(C)C)c5c4)n3)nc2)CC1; assay: increase in dead-cell fraction, 72 h; higher = more death;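 note: breast cancer cell lines in 384-well plates, stained with Hoechst plus LIVE/DEAD far red dye and imaged, cells above an LDR intensity threshold counted dead, Hoechst-negative corpses included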
Flavopiridol [2] = compound: T1, CN1CC[C@H](c2c(O)cc(O)c3c(=O)cc(-c4ccccc4Cl)oc23)[C@H](O)C1 [Flavopiridol]; assay: as above
LEE011/Ribociclib = compound: CN(C)C(=O)c1cc2cnc(Nc3ccc(N4CCNCC4)cn3)nc2n1C1CCCC1 [LEE011/Ribociclib]; assay: as above
[3] = compound: CCc1cnn2c(NCc3ccc[n+]([O-])c3)cc(N3CCCC[C@H]3CCO)nc12; assay: as above
BSJ-03-123 = compound: CC(=O)c1c(C)c2cnc(Nc3ccc(N4CCN(CCOCCOCCOCCNC(=O)COc5cccc6c5C(=O)N(C5CCC(=O)NC5=O)C6=O)CC4)cn3)nc2n(C2CCCC2)c1=O [BSJ-03-123]; assay: as above
Neratinib/HKI272 = compound: CCOc1cc2ncc(C#N)c(Nc3ccc(OCc4ccccn4)c(Cl)c3)c2cc1NC(=O)/C=C/CN(C)C [Neratinib/HKI272]; assay: as above
THZ1 [4] = compound: T2, CN(C)C/C=C/C(=O)Nc1ccc(C(=O)Nc2cccc(Nc3ncc(Cl)c(-c4c[nH]c5ccccc45)n3)c2)cc1 [THZ1]; assay: as above
[5] = compound: CC(=O)c1c(C)c2cnc(Nc3ccc(N4CCNCC4)cn3)nc2n(C2CCCC2)c1=O; assay: as above
Flavopiridol [6] = compound: T1, Flavopiridol; assay: GR value, 72 h; higher = faster growth (1 = untreated, <0 = killing);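 note: breast cancer and non-malignant breast epithelial lines, nine half-log doses, viable cells counted by Hoechst and LIVE/DEAD dye imaging versus time-zero plates and DMSO controls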
THZ1 [7] = compound: T2, THZ1; assay: as above
[8] = compound: CC(=O)c1c(C)c2cnc(Nc3ccc(N4CCNCC4)cn3)nc2n(C2CCCC2)c1=O; assay: as above
THZ531 = compound: CN(C)C/C=C/C(=O)Nc1ccc(C(=O)N2CCC[C@@H](Nc3ncc(Cl)c(-c4c[nH]c5ccccc45)n3)C2)cc1 [THZ531]; assay: as above

In the case of HCC1806, the “increase in dead-cell fraction” value ([1]; 0.001 µM) is reported as 0.0032, the “increase in dead-cell fraction” value ([1]; 0.003162 µM) is reported as -0.005 and the “increase in dead-cell fraction” value ([1]; 0.01 µM) is reported as 0.0052. For the same cell line, the “increase in dead-cell fraction” value ([1]; 0.03162 µM) was 0.0175, the “increase in dead-cell fraction” value ([1]; 0.1 µM) was 0.0076 and the “increase in dead-cell fraction” value ([1]; 0.3162 µM) was 0.0172. For the same cell line, the “increase in dead-cell fraction” value ([1]; 1 µM) was 0.043, the “increase in dead-cell fraction” value ([1]; 3.162 µM) was 0.154 and the “increase in dead-cell fraction” value ([1]; 10 µM) was 0.698. The “increase in dead-cell fraction” value (Flavopiridol [2]; 0.0001 µM) was -0.0011, the “increase in dead-cell fraction” value (Flavopiridol [2]; 0.0003162 µM) was -0.0029 and the “increase in dead-cell fraction” value (Flavopiridol [2]; 0.001 µM) was 0.003. For the same cell line, the “increase in dead-cell fraction” value (Flavopiridol [2]; 0.003162 µM) was -0.001, the “increase in dead-cell fraction” value (Flavopiridol [2]; 0.01 µM) was 0.0029 and the “increase in dead-cell fraction” value (Flavopiridol [2]; 0.03162 µM) was 0.005. The “increase in dead-cell fraction” value (Flavopiridol [2]; 0.1 µM) was 0.019, the “increase in dead-cell fraction” value (Flavopiridol [2]; 0.3162 µM) was 0.0572 and the “increase in dead-cell fraction” value (Flavopiridol [2]; 1 µM) was 0.71. For the same cell line, the “increase in dead-cell fraction” value (LEE011/Ribociclib; 0.001 µM) was 0.0002, the “increase in dead-cell fraction” value (LEE011/Ribociclib; 0.003162 µM) was -0.0001 and the “increase in dead-cell fraction” value (LEE011/Ribociclib; 0.01 µM) was 0.0014. The “increase in dead-cell fraction” value (LEE011/Ribociclib; 0.03162 µM) was -0.0047, the “increase in dead-cell fraction” value (LEE011/Ribociclib; 0.1 µM) was 0.0015 and the “increase in dead-cell fraction” value (LEE011/Ribociclib; 0.3162 µM) was 0.0032. The “increase in dead-cell fraction” value (LEE011/Ribociclib; 1 µM) was 0.0064, the “increase in dead-cell fraction” value (LEE011/Ribociclib; 3.162 µM) was 0.0046 and the “increase in dead-cell fraction” value (LEE011/Ribociclib; 10 µM) was 0.0171. The “increase in dead-cell fraction” value ([3]; 0.0001 µM) was -0.0016, the “increase in dead-cell fraction” value ([3]; 0.0003162 µM) was -0.0077 and the “increase in dead-cell fraction” value ([3]; 0.001 µM) was -0.0005. For the same cell line, the “increase in dead-cell fraction” value ([3]; 0.003162 µM) was 0.0006, the “increase in dead-cell fraction” value ([3]; 0.01 µM) was 0.0355 and the “increase in dead-cell fraction” value ([3]; 0.03162 µM) was 0.585. For the same cell line, the “increase in dead-cell fraction” value ([3]; 0.1 µM) was 0.742, the “increase in dead-cell fraction” value ([3]; 0.3162 µM) was 0.728 and the “increase in dead-cell fraction” value ([3]; 1 µM) was 0.713. The “increase in dead-cell fraction” value (BSJ-03-123; 0.001 µM) was 0.0017, the “increase in dead-cell fraction” value (BSJ-03-123; 0.003162 µM) was 0.0008 and the “increase in dead-cell fraction” value (BSJ-03-123; 0.01 µM) was -0.0016. For the same cell line, the “increase in dead-cell fraction” value (BSJ-03-123; 0.03162 µM) was -0.0015, the “increase in dead-cell fraction” value (BSJ-03-123; 0.1 µM) was 0.0039 and the “increase in dead-cell fraction” value (BSJ-03-123; 0.3162 µM) was 0.0061. The “increase in dead-cell fraction” value (BSJ-03-123; 1 µM) was 0.0075, the “increase in dead-cell fraction” value (BSJ-03-123; 3.162 µM) was 0.0235 and the “increase in dead-cell fraction” value (BSJ-03-123; 10 µM) was 0.152. The “increase in dead-cell fraction” value (Neratinib/HKI272; 0.0003162 µM) was 0.0048, the “increase in dead-cell fraction” value (Neratinib/HKI272; 0.001 µM) was -0.0002 and the “increase in dead-cell fraction” value (Neratinib/HKI272; 0.003162 µM) was 0.0056. The “increase in dead-cell fraction” value (Neratinib/HKI272; 0.01 µM) was 0.015, the “increase in dead-cell fraction” value (Neratinib/HKI272; 0.03162 µM) was 0.0267 and the “increase in dead-cell fraction” value (Neratinib/HKI272; 0.1 µM) was 0.0441. The “increase in dead-cell fraction” value (Neratinib/HKI272; 0.3162 µM) was 0.065, the “increase in dead-cell fraction” value (Neratinib/HKI272; 1 µM) was 0.0775 and the “increase in dead-cell fraction” value (Neratinib/HKI272; 3.162 µM) was 0.435. The “increase in dead-cell fraction” value (THZ1 [4]; 0.0001 µM) was -0.0025, the “increase in dead-cell fraction” value (THZ1 [4]; 0.0003162 µM) was -0.0038 and the “increase in dead-cell fraction” value (THZ1 [4]; 0.001 µM) was -0.0025. For the same cell line, the “increase in dead-cell fraction” value (THZ1 [4]; 0.003162 µM) was -0.0009, the “increase in dead-cell fraction” value (THZ1 [4]; 0.01 µM) was -0.0024 and the “increase in dead-cell fraction” value (THZ1 [4]; 0.03162 µM) was 0.0112. For the same cell line, the “increase in dead-cell fraction” value (THZ1 [4]; 0.1 µM) was 0.0478, the “increase in dead-cell fraction” value (THZ1 [4]; 0.3162 µM) was 0.271 and the “increase in dead-cell fraction” value (THZ1 [4]; 1 µM) was 0.766. For the same cell line, the “increase in dead-cell fraction” value ([5]; 0.0003162 µM) was 0.0005, the “increase in dead-cell fraction” value ([5]; 0.001 µM) was 0.0026 and the “increase in dead-cell fraction” value ([5]; 0.003162 µM) was 0.0009. For the same cell line, the “increase in dead-cell fraction” value ([5]; 0.01 µM) was -0.0004, the “increase in dead-cell fraction” value ([5]; 0.03162 µM) was 0.0094 and the “increase in dead-cell fraction” value ([5]; 0.1 µM) was 0.0238. For the same cell line, the “increase in dead-cell fraction” value ([5]; 0.3162 µM) was 0.0157, the “increase in dead-cell fraction” value ([5]; 1 µM) was 0.0237 and the “increase in dead-cell fraction” value ([5]; 3.162 µM) was 0.0046. It also gave a GR value (Flavopiridol [6]; 0.0001 µM) of 0.956 GR, a GR value (Flavopiridol [6]; 0.0003162 µM) of 1.03 GR and a GR value (Flavopiridol [6]; 0.001 µM) of 1.04 GR. It also gave a GR value (Flavopiridol [6]; 0.003162 µM) of 0.878 GR, a GR value (Flavopiridol [6]; 0.01 µM) of 1.03 GR and a GR value (Flavopiridol [6]; 0.03162 µM) of 0.926 GR. It also gave a GR value (Flavopiridol [6]; 0.1 µM) of 0.659 GR, a GR value (Flavopiridol [6]; 0.3162 µM) of 0.199 GR and a GR value (Flavopiridol [6]; 1 µM) of -0.565 GR. It also gave a GR value (THZ1 [7]; 0.0001 µM) of 1.08 GR, a GR value (THZ1 [7]; 0.0003162 µM) of 1.04 GR and a GR value (THZ1 [7]; 0.001 µM) of 1.04 GR. It also gave a GR value (THZ1 [7]; 0.003162 µM) of 1 GR, a GR value (THZ1 [7]; 0.01 µM) of 0.968 GR and a GR value (THZ1 [7]; 0.03162 µM) of 0.739 GR. For the same cell line, the GR value (THZ1 [7]; 0.1 µM) was 0.323 GR, the GR value (THZ1 [7]; 0.3162 µM) was -0.252 GR and the GR value (THZ1 [7]; 1 µM) was -0.656 GR. The GR value ([8]; 0.0003162 µM) was 1.07 GR, the GR value ([8]; 0.001 µM) was 1.02 GR and the GR value ([8]; 0.003162 µM) was 0.939 GR. It also gave a GR value ([8]; 0.01 µM) of 0.965 GR, a GR value ([8]; 0.03162 µM) of 0.851 GR and a GR value ([8]; 0.1 µM) of 0.695 GR. It also gave a GR value ([8]; 0.3162 µM) of 0.739 GR, a GR value ([8]; 1 µM) of 0.625 GR and a GR value ([8]; 3.162 µM) of 0.771 GR. For the same cell line, the GR value (THZ531; 0.0001 µM) was 0.976 GR, the GR value (THZ531; 0.0003162 µM) was 0.999 GR and the GR value (THZ531; 0.001 µM) was 1.04 GR. For the same cell line, the GR value (THZ531; 0.003162 µM) was 1.01 GR, the GR value (THZ531; 0.01 µM) was 1.07 GR and the GR value (THZ531; 0.03162 µM) was 1 GR. For the same cell line, the GR value (THZ531; 0.1 µM) was 0.992 GR, the GR value (THZ531; 0.3162 µM) was 0.659 GR and the GR value (THZ531; 1 µM) was -0.489 GR.
